Where two headings read alike, the source gives them in different places.
Details: rcm bond, DCM

CCN(c1cccc2c1C/C=C\COc1cc(C)nc(OC)c1CNC2=O)C1CCOCC1
ring closure, isolated yield (from C=CCOc1cc(C)nc(OC)c1CNC(=O)c1cccc(N(CC)C2CCOCC2)c1CC=C, 12-membered ring, Grubbs II (10+10 mol%, then 10 mg), 19.5 mM, 25.0 °C, 132.0 h): 19%

CCN(c1cccc2c1CC=CCCc1cc(C)nc(OC)c1CNC2=O)[C@H]1CC[C@@H](NC(=O)OC(C)(C)C)CC1
ring closure, isolated yield (from C=CCCc1cc(C)nc(OC)c1CNC(=O)c1cccc(N(CC)[C@H]2CC[C@@H](NC(=O)OC(C)(C)C)CC2)c1CC=C, 12-membered ring, Hoveyda-Grubbs II (2 x 20 mol%), 39.8 mM, 55.0 °C, 72.0 h): 57.8%

CCN(c1cccc2c1CC=CCOCc1cc(C)nc(OC)c1CNC2=O)C1CCOCC1
ring closure, isolated yield (from C=CCOCc1cc(C)nc(OC)c1CNC(=O)c1cccc(N(CC)C2CCOCC2)c1CC=C, 13-membered ring, Grubbs II (10 mol%), 20.0 mM, 25.0 °C, 22.0 h): 54.7%

From patent publication US20160122342A1, “ENHANCER OF ZESTE HOMOLOG 2 INHIBITORS” (GLAXOSMITHKLINE INTELLECTUAL PROPERTY (NO.2) LIMITED, priority 2013, published 2016)
